Assay results from article PMC6156755, “Using Human Plasma as an Assay Medium in Caco-2 Studies Improves Mass Balance for Lipophilic Compounds” (Pharmaceutical Research, 2018).
Read-outs that look alike come from different tables or passages of the source. Marks after values point to notes of the source that are not given here.

Assays:
[1] = Human plasma protein binding (ultracentrifugation or rapid equilibrium dialysis); type: in vitro ADME; conditions: for fraction unbound / fraction unbound at 6 h: pH 7.4, read-out: fu (fraction unbound in plasma); for fraction unbound: neat human plasma, 37°C, concentration comparable to Caco-2 assay
Procedure: Binding was assessed using one of two methods: ultracentrifugation ([31]) using neat human plasma or rapid equilibrium dialysis (RED) using either neat or diluted plasma. […] To allow analysis with a single calibration curve, the total plasma and protein-free supernatant samples were ‘matrix-matched’ by taking aliquots of protein-free supernatant samples and adding to fresh tubes containing an equal volume of blank plasma, or taking aliquots of the total plasma samples and adding to fresh tubes containing an equal volume of Dulbecco’s phosphate-buffered saline (DPBS). In this way, the final composition of both the protein-free supernatant samples and the total plasma samples were ‘matched’ prior to the analysis against a common calibration curve prepared in a 1:1 mixture of human plasma and DPBS. All samples were then stored frozen at −80°C until analysis.
The holding plate was then placed on a plate shaker (set at 800 rpm; ThermoMixer C, Eppendorf) and maintained at 37°C under a 2% CO2 atmosphere. The dialysis was conducted for 6 h, assuming steady state was achieved by the end of this period ([32]). Samples were then removed from both the donor and dialysate chambers of each RED insert. […] Samples were matrix matched as described above (but using PBS buffer instead of DPBS) and stored at −80°C until analysis.
For the more lipophilic compounds with potential for very high binding, the RED method was used with diluted plasma to increase the chance of detecting concentrations in the dialysate samples. Diluted human plasma (10% v/v in pH 7.4 phosphate buffered saline) was spiked with each compound (at 10% of the concentration used for the Caco-2 experiment with neat plasma) and binding conducted as described above. The binding in neat plasma was then calculated by correcting for the dilution as described below.
For binding measurements in neat plasma by ultracentrifugation, the fraction unbound (fu) was calculated from the ratio of the average unbound concentration in protein free supernate (Cunbound) to the average total concentration in non-centrifuged plasma (Ctotal). The standard deviation (SD) for the fu value was calculated using the propagation of errors approach as described previously ([33]). For binding measurements using the RED method in neat plasma, fu was calculated from the ratio of the dialysate to total plasma concentration for each dialysis unit and the mean and SD calculated for replicate units (n = 3).
For RED binding assessments using 10% plasma, the fu − diluted for individual dialysis units was calculated in the same way as described above.

[2] = Caco-2 permeability assay with pH 7.4 buffer or human plasma in both chambers; conditions: human; for efflux ratio: Caco-2, pH 7.4, Efflux ratio (B-A/A-B)
in vitro = conditions: human, Caco-2, pH 7.4, Papp A-B
Caco-2 cell monolayer [3] = assay: Caco-2 permeability assay with pH 7.4 buffer or human plasma in both chambers; conditions: for Permeability Classification: criteria of Table V
Caco-2 cell monolayer [4] = system: Caco-2 cell monolayer
[5] = Caco-2, pH 7.4, Papp A-B, buffer pH 7.4 in both chambers
[6] = RED with diluted human plasma (10% v/v), corrected for dilution, < values from LLOQ
[7] = buffer (HBSS/HEPES pH 7.4) in both chambers
[8] = Caco-2, pH 7.4, Papp A-B, human plasma in both chambers, corrected for fu in donor
[9] = Caco-2, pH 7.4, Papp B-A, buffer pH 7.4 in both chambers
[10] = Caco-2, pH 7.4, Papp B-A, human plasma in both chambers, corrected for fu in donor

Row | SMILES | fraction unbound [1] | Papp A→B [2, 5] | fraction unbound at 6 h [1, 6] | Mass balance A-B (Caco-2 cell monolayer [3]; [7]) | Permeability Classification (Caco-2 cell monolayer [3]; buffer pH 7.4) | Mass balance B-A (Caco-2 cell monolayer [3]; buffer pH 7.4 in both chambers) | Mass balance A-B (Caco-2 cell monolayer [3]; human plasma in both chambers) | Mass balance B-A (Caco-2 cell monolayer [3]; human plasma in both chambers) | Permeability Classification (Caco-2 cell monolayer [3]; human plasma) | Papp ([2]; Caco-2, pH 7.4) | Papp A→B [2, 8] | Papp B→A [2, 10] | other results
1 | COCCc1ccc(OCC(O)CNC(C)C)cc1 (stereo not drawn) [Metoprolol, metoprolol] | 0.7 | 50 ± 6.1 ×10⁻⁶ cm/s | – | – | – | – | – | – | – | – | – | – | Papp A→B (in vitro): 57 ± 5.8 ×10⁻⁶ cm/s
2 | CCCCN(CCCC)CCC(O)c1cc2c(Cl)cc(Cl)cc2c2cc(C(F)(F)F)ccc12 (stereo not drawn) [Halofantrine, halofantrine] | – | – | < 0.0001 | <10% | Low (Papp < 0.839) | <10% | 83 ± 7.6% | 87 ± 4.4% | High (Papp ≥ 8.15) | > 300 ×10⁻⁶ cm/s | – | – | Mass balance A-B (Caco-2 cell monolayer [3]; buffer (HBSS/HEPES pH 7.4) in both chambers, listed as halofantrine): < 10%; Mass balance B-A (Caco-2 cell monolayer [3]; buffer pH 7.4 in both chambers, listed as halofantrine): < 10%; Papp A→B ([2]; Caco-2, pH 7.4): > 300 ×10⁻⁶ cm/s; Papp B→A ([2]; Caco-2, pH 7.4): > 300 ×10⁻⁶ cm/s
3 | CC(C)(C)NCC(O)COc1ccc(NC(=O)NC2CCCCC2)cc1 (stereo not drawn) [Talinolol, talinolol] | 0.48 | – | – | – | – | – | – | – | – | – | – | – | –
4 | CCN(CC)CCCC(C)Nc1ccnc2cc(Cl)ccc12 (stereo not drawn) [Chloroquine, chloroquine] | – | – | – | – | High (Papp ≥ 4.90) | – | – | – | High (Papp ≥ 8.15) | – | – | – | Permeability Classification (Caco-2 cell monolayer [3]; buffer pH 7.4, listed as chloroquine): high; Permeability Classification (Caco-2 cell monolayer [3]; human plasma, listed as chloroquine): high
5 | O=C1C(O)=C([C@H]2CC[C@H](c3ccc(Cl)cc3)CC2)C(=O)c2ccccc21 [Atovaquone, atovaquone] | – | – | < 0.0002 | <10% | Low (Papp < 0.839) | <10% | 99 ± 1.2% | 97 ± 2.3% | High (Papp ≥ 8.15) | > 300 ×10⁻⁶ cm/s | > 300 ×10⁻⁶ cm/s | > 300 ×10⁻⁶ cm/s | Mass balance A-B (Caco-2 cell monolayer [3]; buffer (HBSS/HEPES pH 7.4) in both chambers, listed as atovaquone): < 10%; Mass balance B-A (Caco-2 cell monolayer [3]; buffer pH 7.4 in both chambers, listed as atovaquone): < 10%
6 | CC(C)(C)NCc1cc(Nc2ccnc3cc(Cl)ccc23)c2c(c1O)CCCC2 [Naphthoquine, naphthoquine] | – | – | – | – | – | – | – | – | – | – | – | – | fu (fraction unbound in plasma) [1, 6]: 0.019 ^e; Efflux ratio (B-A/A-B) (Caco-2 cell monolayer [4]; Caco-2): 0.78 ± 0.12; Mass balance B-A (Caco-2 cell monolayer [4]; Caco-2): 94 ± 14%; Papp A-B (Caco-2 cell monolayer [4]; Caco-2): 230 ± 32^b 10^−6 cm/s; Papp B-A (Caco-2 cell monolayer [4]; Caco-2): 180 ± 10^b 10^−6 cm/s; Efflux ratio (B-A/A-B) (Caco-2 cell monolayer [4]; Caco-2, pH 7.4): 2.0 ± 1.3; Mass balance A-B (Caco-2 cell monolayer [4]; Caco-2, pH 7.4): 31 ± 7.2%; Mass balance B-A (Caco-2 cell monolayer [4]; Caco-2, pH 7.4): 70 ± 10%; Papp A-B (Caco-2 cell monolayer [4]; Caco-2, pH 7.4): 2.2 ± 1.3 10^−6 cm/s; Papp B-A (Caco-2 cell monolayer [4]; Caco-2, pH 7.4): 4.5 ± 1.4 10^−6 cm/s; Permeability Classification (Caco-2 cell monolayer [4]; Caco-2, pH 7.4): Intermediate

Continued, in another order:

Row | fraction unbound [1] | Papp A→B [2, 5] | fraction unbound at 6 h [1, 6] | Mass balance A-B (Caco-2 cell monolayer [3]; [7]) | Permeability Classification (Caco-2 cell monolayer [3]; buffer pH 7.4) | Mass balance B-A (Caco-2 cell monolayer [3]; buffer pH 7.4 in both chambers) | Mass balance A-B (Caco-2 cell monolayer [3]; human plasma in both chambers) | Mass balance B-A (Caco-2 cell monolayer [3]; human plasma in both chambers) | Permeability Classification (Caco-2 cell monolayer [3]; human plasma) | Papp ([2]; Caco-2, pH 7.4) | Papp A→B [2, 8] | Papp B→A [2, 10] | SMILES | other results
7 | 0.35 | 1.6 ± 0.32 ×10⁻⁶ cm/s | – | 99 ± 11% | – | 99 ± 1.2% | 98 ± 1.5% | 92 ± 4.7% | – | – | 1.2 ± 0.058 ×10⁻⁶ cm/s | 14 ± 1.5 ×10⁻⁶ cm/s | COC(=O)c1ccccc1-c1c2ccc(=N)cc-2oc2cc(N)ccc12 [Rhodamine 123, rhodamine 123] | efflux ratio ([2]; buffer pH 7.4 in both chambers): 6.1 ± 1.4; efflux ratio ([2]; human plasma in both chambers): 12 ± 1.4; Papp B→A [2, 9]: 9.7 ± 1.1 ×10⁻⁶ cm/s
8 | – | – | < 0.001 | <10% | Low (Papp < 0.839) | <10% | 100 ± 8.1% | 100 ± 5.8% | High (Papp ≥ 8.15) | > 300 ×10⁻⁶ cm/s | > 300 ×10⁻⁶ cm/s | > 300 ×10⁻⁶ cm/s | Clc1ccc2c(N3CCN(CCCN4CCN(c5ccnc6cc(Cl)ccc56)CC4)CC3)ccnc2c1 [Piperaquine, piperaquine] | Mass balance A-B (Caco-2 cell monolayer [3]; buffer (HBSS/HEPES pH 7.4) in both chambers, listed as piperaquine): < 10%; Mass balance B-A (Caco-2 cell monolayer [3]; buffer pH 7.4 in both chambers, listed as piperaquine): < 10%
9 | 0.04 | 2.4 ± 1.4 ×10⁻⁶ cm/s | – | 76 ± 0.58% | – | 60 ± 5.6% | 100 ± 7.2^b % | 110 ± 7.5^b % | – | – | 8.4 ± 2.5 ×10⁻⁶ cm/s | 140 ± 42 ×10⁻⁶ cm/s | CC(C)(C)NC(=O)[C@@H]1C[C@@H]2CCCC[C@@H]2CN1C[C@@H](O)[C@H](Cc1ccccc1)NC(=O)[C@H](CC(N)=O)NC(=O)c1ccc2ccccc2n1 [Saquinavir] | Papp B→A [2, 9]: 34 ± 2.1 ×10⁻⁶ cm/s
